Data as given in ChEMBL document CHEMBL1142759, “Synthesis of some diguanidino 1-methyl-2,5-diaryl-1H-pyrroles as antifungal agents” (2005).
Converted amounts (≈) assume the structure as drawn.

Columns and labels:
Candida [1] = test: Minimum inhibitory concentration against Candida krusei ATCC 6528 evaluated by in vitro agar diffusion and micro-broth dilution assay; assay type: functional, Candida kruisii
Candida albicans [2] = test: Minimum inhibitory concentration against Candida albicans V-01-191 evaluated by in vitro agar diffusion and microbroth dilution assay; assay type: functional
Nakaseomyces glabratus = test: Minimum inhibitory concentration against Candida glabrata ATCC 90030 evaluated by in vitro agar diffusion and microbroth dilution assay; assay type: functional
Candida parapsilosis = test: Minimum inhibitory concentration against Candida parapsilosis ATCC 22019 evaluated by in vitro agar diffusion and micro-broth dilution assay; assay type: functional; details: Lodderomyces parapsilosis
Candida [3] = test: Minimum inhibitory concentration against Candida krusei 1766-1 evaluated by in vitro agar diffusion and micro-broth dilution assay; assay type: functional, Candida kruisii
Candida tropicalis = test: Minimum inhibitory concentration against Candida tropicalis ATCC750 evaluated by in vitro agar diffusion and microbroth dilution assay; assay type: functional
Aspergillus fumigatus = test: Minimum inhibitory concentration against Aspergillus fumigatus LSI-11 evaluated by in vitro agar diffusion and microbroth dilution assay; assay type: functional
Candida albicans [4] = test: Minimum inhibitory concentration against Candida albicans A261 evaluated by in vitro agar diffusion and micro-broth dilution assay; assay type: functional

| Structure (SMILES) | MIC (Candida [1]) | MIC (Candida albicans [2]) | MIC (Nakaseomyces glabratus) | MIC (Candida parapsilosis) | MIC (Candida [3]) | MIC (Candida tropicalis) | MIC (Aspergillus fumigatus) | MIC (Candida albicans [4]) |
| --- | --- | --- | --- | --- | --- | --- | --- | --- |
| Cn1c(-c2ccc(N=C(N)N)c(C(F)(F)F)c2)ccc1-c1ccc(N=C(N)N)c(C(F)(F)F)c1 | 16 µg/mL (≈ 33.1 µM) | 16 µg/mL (≈ 33.1 µM) | 16 µg/mL (≈ 33.1 µM) | 16 µg/mL (≈ 33.1 µM) | 16 µg/mL (≈ 33.1 µM) | 4 µg/mL (≈ 8.27 µM) | 16 µg/mL (≈ 33.1 µM) | 16 µg/mL (≈ 33.1 µM) |
| Cn1c(-c2cc(F)c(NC(=N)N)cc2F)ccc1-c1cc(F)c(NC(=N)N)cc1F | > 16 µg/mL | > 16 µg/mL | > 16 µg/mL | > 16 µg/mL | > 16 µg/mL | > 16 µg/mL | > 16 µg/mL | > 16 µg/mL |
| OC(Cn1cncn1)(Cn1cncn1)c1ccc(F)cc1F [FLUCONAZOLE] | > 8 µg/mL | 6 µg/mL (≈ 19.6 µM) | > 8 µg/mL | 8 µg/mL (≈ 26.1 µM) | 32 µg/mL (≈ 104 µM) | 8 µg/mL (≈ 26.1 µM) | ≥ 64 µg/mL | 0.25 µg/mL (≈ 0.816 µM) |
| Cc1cc(NC(=N)N)ccc1-c1ccc(-c2ccc(NC(=N)N)cc2C)n1C | 4 µg/mL (≈ 10.7 µM) | 2 µg/mL (≈ 5.33 µM) | 2 µg/mL (≈ 5.33 µM) | 2 µg/mL (≈ 5.33 µM) | 8 µg/mL (≈ 21.3 µM) | 1 µg/mL (≈ 2.66 µM) | 16 µg/mL (≈ 42.6 µM) | 2 µg/mL (≈ 5.33 µM) |
| CCC(C)n1ncn(-c2ccc(N3CCN(c4ccc(OC[C@H]5CO[C@](Cn6cncn6)(c6ccc(Cl)cc6Cl)O5)cc4)CC3)cc2)c1=O (some centres undefined) [ITRACONAZOLE] | 0.25 µg/mL (≈ 0.354 µM) | 0.25 µg/mL (≈ 0.354 µM) | 0.25 µg/mL (≈ 0.354 µM) | 0.25 µg/mL (≈ 0.354 µM) | < 0.03 µg/mL | 0.12 µg/mL (≈ 0.17 µM) | 0.12 µg/mL (≈ 0.17 µM) | < 0.03 µg/mL |
| COc1cc(NC(=N)N)ccc1-c1ccc(-c2ccc(NC(=N)N)cc2OC)n1C | 16 µg/mL (≈ 39.3 µM) | 16 µg/mL (≈ 39.3 µM) | 16 µg/mL (≈ 39.3 µM) | 16 µg/mL (≈ 39.3 µM) | 16 µg/mL (≈ 39.3 µM) | 16 µg/mL (≈ 39.3 µM) | 16 µg/mL (≈ 39.3 µM) | 16 µg/mL (≈ 39.3 µM) |
| Cn1c(-c2ccc(NC(=N)N)cc2)ccc1-c1ccc(NC(=N)N)cc1 | > 16 µg/mL | > 16 µg/mL | > 16 µg/mL | > 16 µg/mL | > 16 µg/mL | > 16 µg/mL | > 16 µg/mL | > 16 µg/mL |
| Cn1c(-c2ccc(NC(=N)N)cc2Cl)ccc1-c1ccc(NC(=N)N)cc1Cl | 16 µg/mL (≈ 38.4 µM) | 8 µg/mL (≈ 19.2 µM) | 16 µg/mL (≈ 38.4 µM) | 16 µg/mL (≈ 38.4 µM) | 16 µg/mL (≈ 38.4 µM) | 4 µg/mL (≈ 9.61 µM) | > 16 µg/mL | 8 µg/mL (≈ 19.2 µM) |
